{"source": "patent US8765803B1", "about": "“Rab7 GTPase inhibitors and related methods of treatment” (STC.UNM, priority 2011, dated 2014)", "key": {"[1]": {"system": "EGFR degradation in HeLa-Rab7 wt cells", "assay": "EGFR degradation in Rab7 overexpressing HeLa cells", "assay_type": "cell-based, human", "details": "100 μM", "protocol": "EGFR degradation was also monitored in HeLa cells with some minor modifications. […] Cell lysates were prepared at various time points and immunoblotted for total EGFR while actin served as a loading control."}, "U937 cells": {"system": "U937 cells", "assay": "Cytotoxicity of compounds, cell density and viability", "assay_type": "cell-based", "protocol": "U937 cells were grown to a density of 0.4×10^6 cells/mL Compounds were added to a final concentration of 20 μM or otherwise indicated. As a control, cells were treated with DMSO of the same volume. After 24 h incubation, the density and viability of the cells were measured with Countess Cell Counter according to the protocols from the manufacturer."}, "[2]": {"system": "EGFR degradation in SCC-12F cells", "assay": "EGFR degradation in SCC-12F cells", "assay_type": "cell-based", "details": "human keratinocytes (SCC-12F), 10-100 μM", "protocol": "SCC-12F cells were seeded in 12-well plates at 0.12×10^6 cells/well and allowed to grow overnight. On the day of the experiment, the cells were starved in serum free medium containing 25 μg/mL cycloheximide for 2 h before compounds at different concentrations were added. The cells were treated for 30 min. Then, ligand EGF was added to 20 nM. At time points of 0, 15, 30, 60, and 120 min after the EGF addition, the suspension medium was removed and the cell was quickly washed with cold PBS and frozen at −80° C. For electrophoresis and blotting, CelLytic™M Cell Lysis buffer containing protease inhibitor cocktails was added to the frozen cells to obtain the cell lysates according to the protocols from the manufacture. Protein concentration was quantified using BCA assay kit. For SDS-PAGE, 10 μg protein was loaded to each lane and proteins transferred to nitrocellulose. The nitrocellulose membranes were probed with antibodies directed against EGFR or actin and detected using peroxidase conjugated secondary antibodies and SuperSignal West Dura. Signal intensities were measured and quantified using a ChemiDoc™ XRS+ molecular imager coupled with Image Lab software."}, "VLA-4 integrin": {"system": "VLA-4 integrin", "assay": "LDV binding assay in U937 ΔST cells", "assay_type": "cell-based", "details": "FITC-LDV 4 nM, after N-formyl peptide stimulation", "protocol": "The procedure followed the established protocols described previously. U937 ΔST cells (0.4−0.8×10^6 cells/mL) were constantly stirred with a magnetic stir bar at 500 rpm in a test tube. The fluorescence was recorded on a FACScan flow cytometer. The base line fluorescence of the cells was established for 30s. FITC-LDV at a concentration of 4 nM was then added. After the fluorescence stabilized at around 120s, the chemotactic ligand N-formyl peptide was added for stimulation resulting activation of VLA-4 integrin and additional FITC-LDV binding. […] Fluorescence was continually recorded until no further change was observed. The inhibition percentage was calculated according to Equation 1."}, "[3]": {"system": "Ras-related GTPases (Cdc42 wt, Rac1wt, Rac1Q61L, Rab2 wt, Rab7 wt, and H-Ras wt)", "details": "secondary multiplex dose response", "description": "The eight GTPases were grouped into two sets: Rab7, H-Ras wild type and its V12 mutant, and Cdc42 and its L61 mutant were assayed in a buffer containing 1 mM EDTA, while Rho, Rac1 and its L61 mutant, and Cdc42 and its L61 mutant were assayed in the same buffer but instead containing 1 mM Mg^2+ with Cdc42 and its mutant being tested in both buffers. Besides 1 mM EDTA or 1 mM Mg^2+, the buffer contained 30 mM HEPES, pH 7.5, 40 mM KCl, 100 mM NaCl, 0.1% (v/v) NP-40 and 1% BSA. For each multiplex reaction, an extra set of beads was included to serve as scavengers to bind any proteins that dissociate from their assigned bead set and thereby reduce interference due to protein dissociation during the assay. […] Briefly, each individual GST-tagged enzyme was incubated with 4 μm glutathione-coated microsphere beads overnight with gentle rotation. The microsphere beads have different red fluorescence dyes incorporated and therefore could be separated by a flow cytometer. The unbound enzyme was removed by sufficient washing with the buffer. The bead sets were then combined and dispensed to 384-well plates at 5 μL/well. For one plate, 0.5 μg each of the enzymes and 4.0×10^4 of each bead were used. Then 100 nL compound was added using Biomek FX followed by the addition of 5 μL/well of BODIPY-FL-GTP (ribose-linked BODIPY). […] The beads were aspirated and delivered with the HyperCyt® instrument and read on CyAnADP flow cytometer. Forward scatter and side scatter was used to define the whole bead population. […] The data was analyzed by the HyperView® software developed by Dr. Bruce Edward at the University of New Mexico.\nBriefly, six sets of beads (each with a unique red fluorescence intensity) were individually coated with six representative GST-tagged Ras-related GTPases (Cdc42 wt, Rac1wt, Rac1Q61L, Rab2 wt, Rab7 wt, and H-Ras wt) (FIG. 29A). The individually conjugated beads were then assayed in the presence of individual compounds in the Molecular Libraries Small Molecule Repository using a HyperCyt flow cytometry to identify molecules that altered the binding of fluorescent nucleotide to Ras-family GTPases (36)."}, "[4]": {"assay": "Solubility in PBS and assay media, UV absorbance detection", "assay_type": "physicochemical", "details": "read-out: Solubility", "protocol": "Solubility was measured in phosphate buffered saline (PBS) at room temperature (23° C.). PBS by definition is 137 mM NaCl, 2.7 mM KCl, 10 mM sodium phosphate dibasic, 2 mM potassium phosphate monobasic and a pH of 7.4. Detection was based on UV absorbance. […]. Solubility was also assessed in the each of the four media used in the individual assays. […]"}, "Rab7 wt [5]": {"system": "Rab7 wt", "assay": "Equilibrium binding with varying fluorescent nucleotide at fixed CID1067700 concentration", "protocol": "Dose response assays were conducted in two different modes. […].\n[…]. […] […]."}, "[6]": {"assay": "Stability in PBS at room temperature", "assay_type": "physicochemical", "details": "23° C., after 48 hours, no antioxidants, DMSO below 0.1%", "protocol": "Stability, depicted as closed circles in the graph, was assessed at room temperature (23° C.) in PBS (no antioxidants or other protectants and DMSO concentration below 0.1%). Stability data is depicted as a graph showing the loss of compound with time over a 48 hr period with a minimum of 6 time points and providing the percent remaining compound at end of the 48 hr period."}, "[7]": {"assay": "Chemical stability towards L-glutathione in DMSO, LCMS", "assay_type": "physicochemical", "details": "1.2-3.0 eq L-glutathione in DMSO, 37° C., up to 72 h", "protocol": "The three experiments were monitored by LCMS at each of the following time points: 1 h, 2 h, 4 h, 24 h, 48 h, and 72 h. Procedure: […]"}, "Rab7 wt [8]": {"system": "Rab7 wt", "assay": "Nucleotide dissociation assay under equilibrium conditions", "details": "CID1067700 10 μM, compared with unlabeled GDP 10 μM", "description": "This low level bead associated fluorescence was subtracted from specific binding to obtain accurate measurement of the off rates. Data normalization was performed by subtracting dilution only values from competitor treated experimental values.\nThe experiment was carried out by pre-binding BODIPY-GTP or BODIPY-GDP to GST-tagged Rab7 protein to equilibrium and then assaying for the loss of fluorescence over time occasioned by the release of bound nucleotide (FIG. 31A-D). […] Dissociation rate constants were calculated from data fit to exponential functions using Prism software."}}, "note": "Where “and” joins values, the source holds several entries; their conditions need not be identical. Equal entries are not always repeated. Where two headings read alike, the source gives them in different places.", "data": [{"compound": "CC1(C)Cc2c(sc(NC(=S)NC(=O)c3ccccc3)c2C(=O)O)CO1", "note": "[CID1067700, 2-(3-benzoylthioureido)-5,5-dimethyl-5,7-dihydro-4H-thieno[2,3-c]pyran-3-carboxylic acid]", "values": [{"measurement": "Growth factor receptor (EGFR) degradation", "setting": "[1]", "result": "decreased"}, {"measurement": "Cell viability of U937 cells after treatment", "setting": "U937 cells; 24 h, 20 μM", "result": 94, "unit": "%"}, {"measurement": "Cytotoxicity in U937 cells", "setting": "U937 cells; 24 h in growth medium", "result": "no obvious cytotoxicity"}, {"measurement": "Growth factor receptor (EGFR) degradation", "setting": "[2]", "result": "decreased"}, {"measurement": "VLA4 binding with LDV peptide", "setting": "VLA-4 integrin", "result": "inhibits"}, {"measurement": "EC50", "setting": "[3]; read-out: EC50 against all tested GTPases, fluorescent GTP", "result": "20 to 500", "unit": "nM"}, {"measurement": "Inhibition against all tested GTPases", "setting": "[3]", "result": "at least 40%"}, {"measurement": "solubility", "setting": "[4]; Dose Response-EDTA buffer, pH 7.5, aqueous with cosolvent or surfactant or cyclodextrin, Dose Response-EDTA buffer: 30 mM HEPES, pH 7.5, 100 mM KCl, 20 mM NaCl, 0.01% NP-40, 1 mM EDTA", "result": 69.7, "unit": "µg/mL"}, {"measurement": "solubility", "setting": "[4]; Dose Response-EDTA buffer, pH 7.5, aqueous with cosolvent or surfactant or cyclodextrin, Dose Response-EDTA buffer", "result": 178, "unit": "µM"}, {"measurement": "solubility", "setting": "[4]; Dose Response-Mg buffer, pH 7.5, aqueous with cosolvent or surfactant or cyclodextrin, Dose Response-Mg buffer: 30 mM HEPES, pH 7.5, 100 mM KCl, 20 mM NaCl, 0.01% NP-40, 1 mM MgCl2", "result": 68.1, "unit": "µg/mL"}, {"measurement": "solubility", "setting": "[4]; Dose Response-Mg buffer, pH 7.5, aqueous with cosolvent or surfactant or cyclodextrin, Dose Response-Mg buffer", "result": 174, "unit": "µM"}, {"measurement": "solubility", "setting": "[4]; phosphate buffered saline (PBS), 23 °C, pH 7.4, aqueous buffer, 1 × PBS, pH 7.4, room temperature (23° C.)", "result": "> 116 µg/mL and > 297 µM"}, {"measurement": "Increase of Ki (Cheng Prusoff) between inhibition of BODIPY-GTP and BODIPY-GDP", "setting": "Rab7 wt [5]", "result": 2, "unit": "fold"}, {"measurement": "Effect on Rab7 wt Bmax for BODIPY-GTP", "setting": "Rab7 wt [5]; CID1067700 100 nM", "result": "does not alter"}, {"measurement": "Effect on Rab7 wt Bmax for BODIPY-GDP", "setting": "Rab7 wt [5]; CID1067700 200 nM", "result": "does not alter"}, {"measurement": "Increase in observed EC50 for both nucleotides in the presence of CID1067700", "setting": "Rab7 wt [5]; CID1067700 fixed at 100-200 nM", "result": "≤ 3", "unit": "fold"}, {"measurement": "Percent remaining compound", "setting": "[6]", "result": 77, "unit": "%"}, {"measurement": "Glutathione conjugate formation by LCMS", "setting": "[7]", "result": "did not result in LCMS detection of any conjugates or other product peaks"}, {"measurement": "Glutathione conjugate formation by LCMS", "setting": "[7]; listed as SID 85747738", "result": "No glutathione conjugate or other peaks were observed"}, {"measurement": "Effect on rate of release of bound BODIPY-GTP or BODIPY-GDP", "setting": "Rab7 wt [8]", "result": "no effect"}]}]}
